Five compounds from patent US20160297830A1, “NOVEL COMPOUNDS USEFUL FOR THE TREATMENT OF BACTERIAL INFECTIOUS DISEASES” (GALAPAGOS NV, priority 2013, published 2016) can be followed below.

Assay [1] has as its system E. coli Ec113 efflux pump KO. Briefly: microbe, parasite or virus in culture. Format: cell-based. The note with it: for MIC: Escherichia coli, read-out: MIC Ec113 efflux pump KO.
Assay [2] relates to E. coli Ec50 efflux pump KO. Briefly: microbe, parasite or virus in culture. The assay is classed as cell-based. Particulars: for MIC: Escherichia coli, read-out: MIC Ec50 efflux pump KO.
In assay [3] the test system is S. aureus Sa2 clinical strain NCIMB 41953, MRSA. Kind of assay: microbe, parasite or virus in culture. The assay is classed as cell-based. Particulars: for MIC: Staphylococcus aureus, read-out: MIC Sa2.
Assay [4] deals with H. influenza Hi47 clinical strain, Ampicillin Resistant. Kind of assay: organism not typed. Format: cell-based. The note with it: for MIC: read-out: MIC Hi47.
In assay [5] the test system is S. aureus Sa26 ATCC 25923. Kind of assay: Antibacterial activity assay (MIC), S. aureus Sa26. The note with it: for MIC: Staphylococcus aureus. Format: cell-based.
The next assay relates to S. aureus Sa4 NCTC 6571. Kind of assay: Antibacterial activity assay (MIC), S. aureus Sa4. The assay is classed as cell-based. The note with it: for MIC: Staphylococcus aureus, NCTC6571, read-out: MIC Sa4.
The subject of another assay is E. coli Ec1 ATCC 25922. Kind of assay: Antibacterial activity assay (MIC), E. coli Ec1. The assay is classed as cell-based. The note with it: for MIC: Escherichia coli, ATCC25922, read-out: MIC Ec1.
The subject of another assay is S. aureus Sa1 ATCC 13709. Kind of assay: microbe, parasite or virus in culture. Format: cell-based. The note with it: for MIC: Staphylococcus aureus, ATCC13709, read-out: MIC Sa1.
The test system of assay [6] is Methicillin Resistant S. aureus (MRSA). Kind of assay: Neutropenic mouse thigh infection model. Particulars: Thigh Sa.
Assay [7] relates to H. influenza Hi106 ATCC 51907. Kind of assay: organism not typed. Particulars: read-out: MIC Hi106. Format: cell-based.
The test system of assay [8] is H. influenza Hi10 clinical strain. Briefly: organism not typed. The note with it: read-out: MIC Hi10. The assay is classed as cell-based.
The test system of assay [9] is H. influenza Hi3 ATCC 31517. Kind of assay: organism not typed. Format: cell-based. The note with it: read-out: MIC Hi3.
Setting [10] is: Study 1, 50 mg/kg SC BID, sample time 7 h PI.
Where [11] appears, read: Study 2, 50 mg/kg SC BID, sample time 7 h PI.
[12] abbreviates: Study 3, 50 mg/kg SC BID, sample time 7 h PI.
The mark [13] stands for this setting: Study 4, 50 mg/kg SC BID, sample time 24 h PI.
The mark [14] stands for this setting: Study 5, 50 mg/kg SC BID, sample time 24 h PI.
Where [15] appears, read: Study 6, 50 mg/kg SC BID, sample time 24 h PI.
Setting [16] is: Study 7, 50 mg/kg SC BID, sample time 24 h PI.
[17] abbreviates: Study 8, 50 mg/kg SC QD, sample time 48 h PI.
Setting [18] is: Study 9, 50 mg/kg SC BID, sample time 24 h PI.
Setting [19] is: ATCC25923, read-out: MIC Sa26 + 10% SH.
[20] abbreviates: ATCC25923, read-out: MIC Sa26 + 50% SH.
Where [21] appears, read: Study 6, 25 mg/kg PO BID, sample time 24 h PI.
Setting [22] is: Study 7, 15 mg/kg PO BID, sample time 24 h PI.
[23] abbreviates: Study 7, 50 mg/kg PO BID, sample time 24 h PI.
[24] abbreviates: Study 8, 50 mg/kg PO QD, sample time 48 h PI.
The mark [25] stands for this setting: Study 9, 50 mg/kg PO BID, sample time 24 h PI.

In brackets after ≈: the same amount, converted by molar mass. Where two headings read alike, the source gives them in different places. Where only a bound is given, the exact number is not on record here.

On to “8-O-5-Bromo-4-Chloro-1H-pyrrole-2′-carbonylbranimycin [Compound 33]”, for which, in assay [1] (E. coli Ec113 efflux pump KO), the “MIC Ec113 efflux pump KO” value is 6 µg/mL. The “MIC Ec50 efflux pump KO” value in assay [2] (E. coli Ec50 efflux pump KO) was more than 64 µg/mL. For the same compound, the “MIC Sa2” value in [3] (S. aureus Sa2 clinical strain, MRSA, Erythromycin Resistant, Fluoroquinolone resistant) was determined as 64 µg/mL. Further, in assay [4] (H. influenza Hi47 clinical strain, Ampicillin Resistant), the “MIC Hi47” value is more than 64 µg/mL. The “MIC Sa26 + 10% SH” value in [5] (S. aureus Sa26 + 10% SH) was more than 64 µg/mL. For the same compound, the “MIC Sa26 + 50% SH” value in assay [5] (S. aureus Sa26 + 50% SH) is more than 64 µg/mL. Besides, the “MIC Sa26” value in [5] (S. aureus Sa26 ATCC 25923, sensitive strain, Mueller-Hinton Broth, 37° C.) was more than 64 µg/mL. Also, the “MIC Sa4” value against S. aureus Sa4 NCTC 6571 (S. aureus Sa4 NCTC 6571, sensitive strain) is 64 µg/mL. The “MIC Ec1” value against E. coli Ec1 ATCC 25922 (E. coli Ec1 ATCC 25922, sensitive strain) was more than 64 µg/mL. Further, in the assay with S. aureus Sa1 ATCC 13709 (S. aureus Sa1 ATCC 13709, sensitive strain, Mueller-Hinton Broth, 37° C.), the “MIC Sa1” value is more than 64 µg/mL.

Consider `O=C(O)c1cn(C2CC2)c2cc(N3CCNCC3)c(F)cc2c1=O` [Ciprofloxacin], for which the Active entry in assay [6] (setting [10]), in assay [6] (setting [11]), in assay [6] (setting [12]), in [6] (setting [13]), in assay [6] (setting [14]) and in assay [6] (setting [15]) was “N” each time. Further, the Active entry in assay [6] (setting [16]), in [6] (setting [17]) and in assay [6] (setting [18]) was “N” each time. For the same compound, the “Log reduction vs. untreated” value is −1.27 in assay [6] (setting [10]); −1.07 in assay [6] (setting [11]); 0.22 in assay [6] (setting [12]); −0.05 in assay [6] (setting [13]); −0.27 in [6] (setting [14]); −0.26 in assay [6] (setting [15]). Further, the “Log reduction vs. untreated” value in assay [6] (setting [16]) is reported as −0.08; in assay [6] (setting [17]), −0.39; in assay [6] (setting [18]), −1.28.

As to `COC[C@@H](O)[C@H]1OC(=O)[C@H](COC)[C@H]2C=C[C@H]3[C@H]4O[C@]2(/C(C)=C/[C@H]1C)[C@@H]3[C@H](O)[C@@H](C)[C@H]4OC(=O)c1cc(Cl)c[nH]1` [Compound 30, 8-O-4-Chloro-1H-pyrrole-2′-carbonylbaleomycin], the MIC in assay [7] is more than 64 µg/mL; in assay [1], 0.5 µg/mL (≈ 0.862 µM); in [2], 16 µg/mL (≈ 27.6 µM); in [3], 8 µg/mL (≈ 13.8 µM); in assay [4], 64 µg/mL (≈ 110 µM); in [8], 64 µg/mL (≈ 110 µM). Further, the MIC in [5] (ATCC25923, read-out: MIC Sa26) was 16 µg/mL (≈ 27.6 µM); in [5] (setting [19]), 32 µg/mL; in assay [5] (setting [20]) it was 64 µg/mL; in the assay with S. aureus Sa4 NCTC 6571, 16 µg/mL (≈ 27.6 µM); with E. coli Ec1 ATCC 25922, more than 64 µg/mL; with S. aureus Sa1 ATCC 13709, 16 µg/mL (≈ 27.6 µM). The MIC in assay [9] was more than 64 µg/mL.

On to `COC[C@@H]1[C@@H](O)[C@@H]2[C@H]3C=C[C@@H]4[C@@H](COC)C(=O)O[C@H]([C@H](O)COC)[C@H](C)/C=C(\C)[C@@]24O[C@H]3[C@@H]1OC(=O)c1cc(Cl)c(Cl)[nH]1` [Compound 31, 8-O-4,5-Dichloro-1H-pyrrole-2′-carbonylbranimycin], for which the MIC was 32 µg/mL (≈ 49.6 µM) in assay [7]; 32 µg/mL (≈ 49.6 µM) in assay [1]; more than 64 µg/mL in assay [2]; 64 µg/mL (≈ 99.3 µM) in assay [3]; 32 µg/mL (≈ 49.6 µM) in [4]; 16 µg/mL (≈ 24.8 µM) in assay [8]. In addition, the MIC in assay [5] (ATCC25923, read-out: MIC Sa26) is more than 64 µg/mL; in assay [5] (setting [19]) it was more than 64 µg/mL; in assay [5] (setting [20]), more than 64 µg/mL; in the assay with S. aureus Sa4 NCTC 6571 it was 64 µg/mL (≈ 99.3 µM); in the assay on E. coli Ec1 ATCC 25922, more than 64 µg/mL; in the assay with S. aureus Sa1 ATCC 13709 it was more than 64 µg/mL. Moreover, in assay [9], the MIC was more than 64 µg/mL.

Turning to `CC(=O)NC[C@H]1CN(c2ccc(N3CCOCC3)c(F)c2)C(=O)O1` [Linezolid], the “Log reduction vs. untreated” value is reported as −4.07 in assay [6] (Study 5, 50 mg/kg PO BID, sample time 24 h PI); −4.54 in assay [6] (setting [21]); −3.49 in assay [6] (Study 6, 50 mg/kg PO BID, sample time 24 h PI); −2.98 in [6] (setting [22]); −5.13 in assay [6] (setting [23]); −2.78 in assay [6] (setting [24]). Also, the “Log reduction vs. untreated” value in assay [6] (setting [25]) was −4.01. For the same compound, the Active entry in assay [6] (setting [14]), in assay [6] (setting [21]), in assay [6] (setting [22]), in assay [6] (setting [23]), in [6] (setting [24]) and in assay [6] (setting [25]) was “Y” each time.
